Here are results for 3 compounds from EP2423181A1, “Multitarget substituted biphenyl diol derivatives” (PROUS INSTITUTE FOR BIOMEDICAL RESEARCH S.A., priority 2010, dated 2012).

The structures appear in SMILES notation. pIC50: −log10 of the molar value. Where a name gives a salt, the structure may show the parent alone. Read-outs that look alike come from different tables or passages of the source.

In assay [1] the target is T1, Gonadotrophin-releasing hormone receptors (GnRH, LH-RH)R (Homo sapiens, UniProt P30968).
T1 construct: expressed in transfected cells; host or cells: Chem-1 cells
T1 sequence (P30968 1-328): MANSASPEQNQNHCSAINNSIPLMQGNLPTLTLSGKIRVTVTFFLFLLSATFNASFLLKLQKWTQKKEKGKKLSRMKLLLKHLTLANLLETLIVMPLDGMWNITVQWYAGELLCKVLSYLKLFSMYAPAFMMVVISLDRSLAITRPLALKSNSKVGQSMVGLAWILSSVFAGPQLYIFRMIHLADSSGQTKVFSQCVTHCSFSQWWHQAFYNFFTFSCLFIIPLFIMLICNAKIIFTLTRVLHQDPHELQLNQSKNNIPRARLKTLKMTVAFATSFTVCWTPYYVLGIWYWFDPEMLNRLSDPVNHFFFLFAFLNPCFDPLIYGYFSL
In words: GnRH radioligand binding assay. As to conditions: read-out: % Inhibition at 10 µM. An excerpt: Gonadotrophin-releasing hormone receptors (GnRH, LH-RH)R are a family of G protein-coupled receptors for GnRH, which promotes the secretion of luteinizing hormone (LH) and follicle-stimulating hormone (FSH). The activation of this receptor promotes, through estrogen receptors (ER) located in the cytosol, an increase in gene transcription and activation of tumor suppressor genes, DNA repair, cell division and cell proliferation. GnRH agonists are useful in breast, prostate and ovarian cancer, endometriosis, melanoma, rheumatoid arthritis and Alzheimer's disease. Table 17 presents the results from radioligand binding studies for GnRH for selected compounds using human recombinant Chem-1 cells (Halmos G, Schally AV, Pinski J, Vadillo-Buenfill M, Groot K. Down regulation of pituitary receptors for luteinizing hormone-releasing hormone (LH-RH) in rats by LH-RH antagonist Cetrorelix. Prco Natl Acad Sci USA 1996;93(6):2398-2402). The specific and non specific ligands used were [^125l] [D-Trp^6]-LH-RH (0.05 nM) and [D-Trp^6]-LH-RH ([…]) and after 60 min of incubation at 25°C in a 50 mM HEPES, pH 7.5, 5 mM MgCl2, 1 mM CaCl2, and 0.2% BSA the activity was measured by radioligand binding. Table 17. GnRH radioligand binding assay

The target of assay [2] is T2, MAPK1 (ERK2) (Homo sapiens, UniProt P28482).
T2 construct: host or cells: E. coli
T2 sequence (P28482 whole entry): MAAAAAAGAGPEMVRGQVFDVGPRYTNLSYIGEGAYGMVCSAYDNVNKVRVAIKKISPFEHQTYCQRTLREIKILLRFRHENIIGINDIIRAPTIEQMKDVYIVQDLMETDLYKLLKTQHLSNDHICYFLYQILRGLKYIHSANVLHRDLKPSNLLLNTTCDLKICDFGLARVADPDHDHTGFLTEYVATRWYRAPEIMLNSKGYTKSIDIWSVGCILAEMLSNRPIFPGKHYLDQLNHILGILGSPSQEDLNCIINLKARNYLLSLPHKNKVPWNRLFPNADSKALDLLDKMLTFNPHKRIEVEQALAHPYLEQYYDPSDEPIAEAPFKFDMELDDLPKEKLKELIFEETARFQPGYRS
The assay can be described thus: MAPK1 (ERK2) kinase inhibition ([32P]MBP). In kind it is biochemical. The procedure:
Protein serine threonine kinase MAPK1(ERK2) was assessed in human recombinant E.Coli using 50 µg/ml myelin basic protein (MBP) as a substrate after preincubation and incubation times of 15 and 30 min, respectively, at 37°C in 20 mM MOPS, pH 7.2, 5 mM EGTA, 20 mM MgCl2, 1 mM DTT, 25 mM β-glycerophosphate, 1 mM Na3VO4 incubation buffer. The inhibitory activity was measured by quantification of [^32P]MBP (Jonhson, G.L. and Lapadat, R. Science 2002, 298(5600), 1911-1912). Table 8. Inhibition of MAPK1 at 10 µM

In assay [3] the test system is mice. The assay can be described thus: Hot plate test (analgesic activity). In kind it is in vivo. The procedure:
The hot plate test was used as an animal model of thermally-induced pain. The inhibitory activity measured on the time licking and biting induced by temperature (30 sec max at 55°C) indicates analgesic effect. […] Table 13. Analgesic activity of example 1 in the hot plate test
A general note: In hot-plate and tail-flick tests a longer latency is read as antinociception.

Assay [4] concerns mice. The assay can be described thus: Hot plate test (analgesic activity). It counts as in vivo. This is another data set of the same source.
The target in assay [5] is ERβ (Homo sapiens, UniProt Q92731). The assay can be described thus: Inhibition of ERβ. It counts as binding. As to conditions: slight, non-significant.
Sequence of ERβ (Q92731 whole entry, species assumed): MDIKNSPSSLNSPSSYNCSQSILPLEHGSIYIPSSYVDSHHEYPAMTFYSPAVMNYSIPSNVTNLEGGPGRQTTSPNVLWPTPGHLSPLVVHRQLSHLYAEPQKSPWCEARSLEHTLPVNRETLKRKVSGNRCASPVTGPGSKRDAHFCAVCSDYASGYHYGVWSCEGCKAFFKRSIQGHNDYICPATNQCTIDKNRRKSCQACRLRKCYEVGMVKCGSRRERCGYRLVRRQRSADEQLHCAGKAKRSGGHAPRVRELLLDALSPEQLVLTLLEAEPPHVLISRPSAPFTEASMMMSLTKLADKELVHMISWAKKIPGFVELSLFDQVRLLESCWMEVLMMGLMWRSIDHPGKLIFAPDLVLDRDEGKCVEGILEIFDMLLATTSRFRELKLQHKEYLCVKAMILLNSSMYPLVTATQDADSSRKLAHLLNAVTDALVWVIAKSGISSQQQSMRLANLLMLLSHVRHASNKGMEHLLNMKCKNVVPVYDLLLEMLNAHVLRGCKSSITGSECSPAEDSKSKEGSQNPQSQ
For assay [6], the target named is ERα (Homo sapiens, UniProt P03372). In words: Inhibition of ERα. In kind it is binding. As to conditions: slight, non-significant.
Sequence of ERα (P03372 whole entry, species assumed): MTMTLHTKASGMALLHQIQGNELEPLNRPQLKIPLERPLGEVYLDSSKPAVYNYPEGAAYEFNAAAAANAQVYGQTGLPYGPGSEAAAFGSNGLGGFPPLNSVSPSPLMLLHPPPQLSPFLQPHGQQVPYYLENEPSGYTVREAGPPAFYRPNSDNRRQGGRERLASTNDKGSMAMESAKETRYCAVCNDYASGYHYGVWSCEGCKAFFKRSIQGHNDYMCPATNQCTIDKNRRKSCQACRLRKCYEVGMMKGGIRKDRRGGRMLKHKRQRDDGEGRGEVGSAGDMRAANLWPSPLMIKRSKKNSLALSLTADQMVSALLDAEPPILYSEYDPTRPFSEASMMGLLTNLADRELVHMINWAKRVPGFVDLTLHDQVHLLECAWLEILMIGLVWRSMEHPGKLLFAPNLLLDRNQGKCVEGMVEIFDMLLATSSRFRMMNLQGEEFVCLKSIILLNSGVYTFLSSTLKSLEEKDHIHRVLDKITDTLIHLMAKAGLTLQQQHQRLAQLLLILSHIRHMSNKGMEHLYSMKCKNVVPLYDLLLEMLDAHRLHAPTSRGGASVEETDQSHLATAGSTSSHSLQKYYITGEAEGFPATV
Assay [7] has as its target T3, Akt3 (PRKBG) (Homo sapiens, UniProt Q9Y243).
T3 construct: host or cells: insect cells
The assay can be described thus: Akt3 kinase inhibition ([32P]Crosstide KK). In kind it is biochemical. The procedure: Akt3 activity was obtained in human recombinant insect cells using Crosstide KK 10 µM as a substrate. The incubation buffer was 20 mM MOPS, pH 7.2, 25 mM β-Glycerophosphate, 1 mM DTT, 5 mM EGTA, 20 mM MgCl2, 1 mM Na3VO4 and the preincubation and incubation times 15 and 30 min, respectively, at 37°C. The quantification of inhibition was assessed by the measure of [^32P]Crosstide KK (Laine, J. Et al. J Biol Chem 2002, 277(5), 3743-3751). Table 6. Inhibition of Akt3 (PRKBG) at 10 µM

Assay [8] deals with tumor colon HCT-116. In words: Tumor cell proliferation assay (alamarBlue). In kind it is cell-based. As to conditions: Homo sapiens; tumor colon HCT-116; read-out: IC50. In a few lines: (§1)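 Proliferation changes are detected as viable cells reduce blue, non-fluorescent alamarBlue to a red, fluorescent product. Substances are examined across 0.01 to 100 µM on human or murine tumor lines.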
In general terms: The colour change of resazurin is a common sign of viable cells or microbes.

The test system of assay [9] is tumor ovary OVCAR-3. The assay can be described thus: Tumor cell proliferation assay (alamarBlue). In kind it is cell-based. As to conditions: Homo sapiens; tumor ovary OVCAR-3; read-out: IC50. In a few lines: as §1
The subject of assay [10] is tumor liver Hep 3B. In words: Tumor cell proliferation assay (alamarBlue). It counts as cell-based. As to conditions: Homo sapiens, Hep3B. In a few lines:
as §1

The test system of assay [11] is tumor breast T-47D. The assay can be described thus: Tumor cell proliferation assay (alamarBlue). In kind it is cell-based. As to conditions: Homo sapiens, T47D. The gist of the method: as §1
The subject of assay [12] is tumor breast MCF-7. In words: Tumor cell proliferation assay (alamarBlue). In kind it is cell-based. As to conditions: Homo sapiens, MCF7. The gist of the method: as §1
Assay [13] relates to tumor breast MDA-MB-231. In words: Tumor cell proliferation assay (alamarBlue). It counts as cell-based. As to conditions: Homo sapiens. The gist of the method: as §1
In assay [14] the test system is tumor brain U-87 MG. The assay can be described thus: Tumor cell proliferation assay (alamarBlue). It counts as cell-based. As to conditions: Homo sapiens; tumor brain U-87 MG; read-out: IC50. In a few lines: as §1

T3 sequence (Q9Y243 whole entry): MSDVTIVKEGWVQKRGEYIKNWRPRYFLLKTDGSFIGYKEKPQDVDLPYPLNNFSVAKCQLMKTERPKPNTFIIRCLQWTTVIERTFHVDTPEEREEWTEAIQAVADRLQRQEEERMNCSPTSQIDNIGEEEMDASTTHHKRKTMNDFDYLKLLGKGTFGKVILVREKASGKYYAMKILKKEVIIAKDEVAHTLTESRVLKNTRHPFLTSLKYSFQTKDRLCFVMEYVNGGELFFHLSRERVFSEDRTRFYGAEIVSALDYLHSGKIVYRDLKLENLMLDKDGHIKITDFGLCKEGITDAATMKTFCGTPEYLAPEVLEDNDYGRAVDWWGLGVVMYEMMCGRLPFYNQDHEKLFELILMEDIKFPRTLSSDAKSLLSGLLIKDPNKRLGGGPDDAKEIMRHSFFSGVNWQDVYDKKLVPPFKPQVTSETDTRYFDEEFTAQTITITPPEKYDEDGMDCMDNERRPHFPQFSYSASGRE

By inhibition is commonly meant the relative decrease from the control value, in per cent. As usually defined, the pIC50 is the negative decadic logarithm of the IC50, by convention in mol/L. As for `C=CCc1ccc(O)c(-c2cc(CC=C)ccc2OC(CCNC)c2ccccc2)c1.Cl` (stereo not shown) [Example 1, 5,5'-Diallyl-2'-[3-(methylamino)-1-phenylpropoxy]biphenyl-2-ol hydrochloride], the inhibition at 10 µM in assay [1] (GnRH radioligand binding, 10 µM) came out at 50%; in [2] (MAPK1, at 10 µM, read-out: % Inhibition), 58%; in [5], 7%; in [6], 13%; in [7] (Akt3 (PRKBG), at 10 µM, read-out: % Inhibition), 99%. The “Time Licking and biting (sec) Late phase (15-30 min)” value was found to be 150 s in assay [3] (dose 5 mg/kg i.p.), 150 s in assay [3] (dose 10 mg/kg i.p.), 20 s in assay [3] (dose 30 mg/kg i.p.) and 200 s in assay [4] (dose 1 mg/kg i.p.). In addition, the “antinociceptive activity in the hot plate test” value in assay [3] (dose not given) is recorded as “antinociceptive activity”. Moreover, the “Time Licking and biting (sec) Early phase (0-5 min)” value in assay [4] (dose 1 mg/kg i.p.) stood at 57 s; in assay [4] (dose 5 mg/kg i.p.), 45 s; in [4] (dose 10 mg/kg i.p.), 38 s; in [4] (dose 30 mg/kg i.p.), 30 s. Further, the pIC50 in [8] was 5.37; in assay [9] it was 5.34; in assay [10] (tumor liver Hep 3B, read-out: IC50) it was 5.25; in [11] (tumor breast T-47D, read-out: IC50) it was 4.89; in [12] (tumor breast MCF-7, read-out: IC50), 5.80; in assay [13] (tumor breast MDA-MB-231, read-out: IC50) it was 5.48. The pIC50 in [14] was 5.70.

In the case of `C=CCc1ccc(O)c(-c2ccc(OC(CCNC)c3ccccc3)c(CC=C)c2)c1` (stereo not shown) [Example 5, 3',5-Diallvl-4'-13-(methylamino)-1-phenylpropoxy]biphenyl-2-ol hydrochloride], the inhibition at 10 µM in [1] was 37%; in [2], 80%; in [7] it was 101%. Also, the negative logarithm of the IC50 (pIC50) in assay [10] is 5.72; in assay [11] it was 5.80; in [12] it was 5.35; in assay [13] (MDA-MB-231), 5.68.

On to `C=CCc1ccc(O)c(-c2ccc(O)c(CC=C)c2)c1` [Honokiol, reference compound], for which the figures for the pIC50 in assay [8], in assay [9] and in [14] were 4.77, 4.42 and 4.25, respectively.
